Data taken from patent US10976310B2, “Ligand identification by co-fractionation” (MAX-PLANCK-GESELLSCHAFT ZUR FÖRDERUNG DER WISSENSCHAFTEN …, priority 2016, dated 2021).
“And” between values parts separate entries of the source, which are not always exact repeats. Equal entries are not always repeated.

Assays:
TIA1 = biological target: T1, TIA1 (Homo sapiens, UniProt P31483); assay: MST measurement of ligand binding to recombinant TIA1; settings: recombinant TIA1, n=3
T1 construct: purchased Origene (Herford, Germany)
T1 sequence (P31483 1-386): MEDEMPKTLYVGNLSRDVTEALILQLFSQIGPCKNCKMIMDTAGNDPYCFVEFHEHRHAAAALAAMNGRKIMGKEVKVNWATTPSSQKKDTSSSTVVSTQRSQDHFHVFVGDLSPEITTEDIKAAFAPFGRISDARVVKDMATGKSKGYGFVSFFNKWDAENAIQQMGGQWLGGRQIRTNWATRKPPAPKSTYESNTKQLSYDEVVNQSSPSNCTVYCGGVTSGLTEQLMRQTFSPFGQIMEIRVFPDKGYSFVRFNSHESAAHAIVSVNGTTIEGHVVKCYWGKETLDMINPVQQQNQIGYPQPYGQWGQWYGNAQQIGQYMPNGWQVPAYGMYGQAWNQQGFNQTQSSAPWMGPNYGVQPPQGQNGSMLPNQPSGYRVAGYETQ
Protocol: (§1) Expecting such a basic role of 2′,3′-cAMP to be conserved, we performed similar analysis with TIA1, the human functional homolog of Rbp47b. TIA1 was labeled and its interaction with 2′,3′-cAMP was determined using MST.
TIA1 protein was purchased from Origene (Herford, Germany). Rbp47b was cloned as a C-terminal GFP fusion (to increase protein solubility) into the E. coli expression vector pDEST14 containing His6-tag at the N-terminal of the Gateway (Karlsruhe, Germany) cassette. Rosetta cells expressing His6-Rbp47b-GFP were grown at 28° C. overnight and next day were moved to Terrific Broth medium supplied with 1% sucrose and relevant antibiotics. Cultures at OD 0.4 were induced by addition of 0.1 mM IPTG and transferred to 16° C. for overnight incubation.
MST measurements were performed using a Monolith NT.115 instrument (NanoTemper, München, Germany). Capillaries were loaded into the instrument as sets of 13-16 point ligand titrations. Proteins (Rb47b and TIA1) were labeled in phosphate buffer (PBS) using Monolith™ protein labeling kit RED-NHS (amine reactive; MO-L001) according to the manufacturers instruction. Excitation was optimized by varying the LED power to yield emission intensities above 200 AU, corresponding to 10-50 nM labeled protein. Monolith power was set to 60%. Ligands [2′,3′-cAMP (Sigma A9376)] and [3′,5′-cAMP (Sigma A6885)] were dissolved in PBS. […]

TIA1 self-assembly = biological target: T2, TIA1 self-assembly (Homo sapiens, UniProt P31483); assay: MST measurement of TIA1 self-assembly; assay type: binding; settings: 500 μM 2′,3′-cAMP; in its absence Kd=36.28 nM (36 nM); read-out: Kd of TIA1 self-assembly in the presence of the ligand
T2 construct: purchased Origene (Herford, Germany)
T2 sequence (P31483 1-386): T1 sequence (P31483 1-386)
Protocol: as §1
MST measurements were performed using a Monolith NT.115 instrument (NanoTemper, München, Germany). Capillaries were loaded into the instrument as sets of 13-16 point ligand titrations. Proteins (Rb47b and TIA1) were labeled in phosphate buffer (PBS) using Monolith™ protein labeling kit RED-NHS (amine reactive; MO-L001) according to the manufacturers instruction. Excitation was optimized by varying the LED power to yield emission intensities above 200 AU, corresponding to 10-50 nM labeled protein. Monolith power was set to 60%. Ligands [2′,3′-cAMP (Sigma A9376)] and [3′,5′-cAMP (Sigma A6885)] were dissolved in PBS. 0.5% Tween and premium coated capillaries were used to prevent sticking. Non-labeled TIA1 and Rbp47b were used as ligands in the self-assembly experiments. MO Affinity Analysis software was used to analyze (Kd calculation) and visualize the data. Presented data are from 2-3 technical replicates.

Rbp47b = biological target: T3, Rbp47b (Arabidopsis thaliana, UniProt Q0WW84); assay: MST measurement of ligand binding to recombinant Rbp47b; settings: His6-Rbp47b from E. coli, n=3
T3 sequence (Q0WW84 1-435): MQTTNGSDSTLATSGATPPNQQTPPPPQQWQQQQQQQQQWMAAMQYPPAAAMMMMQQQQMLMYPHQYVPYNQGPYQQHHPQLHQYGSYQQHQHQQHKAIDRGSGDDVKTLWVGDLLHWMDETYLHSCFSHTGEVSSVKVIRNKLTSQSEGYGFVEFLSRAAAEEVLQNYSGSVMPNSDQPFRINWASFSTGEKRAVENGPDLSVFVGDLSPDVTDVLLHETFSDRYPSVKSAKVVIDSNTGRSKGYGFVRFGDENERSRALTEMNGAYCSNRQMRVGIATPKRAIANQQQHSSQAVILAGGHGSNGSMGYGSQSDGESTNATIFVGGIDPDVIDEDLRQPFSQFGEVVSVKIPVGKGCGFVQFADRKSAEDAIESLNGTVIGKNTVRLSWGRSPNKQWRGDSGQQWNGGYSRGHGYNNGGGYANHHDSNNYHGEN
Text: We therefore attempted to determine the in vitro binding affinity biophysically using micro-scale thermophoresis (MST) (Jerabek-Willemsen et al. (2011) Molecular interaction studies using microscale thermophoresis. Assay Drug Dev Technol 9: 342-353). MST exploits the effect of size, charge, and hydration shell on the movement of molecules in a temperature gradient. Complex formation resulting in alteration of at least one of the three parameters leads to differential movement, from which the binding affinity can be determined. For the purpose of the MST experiment, Rbp47b was expressed in and purified from E. coli. […] The measured Kd value also corresponds to the ˜20 μM concentration of 2′,3′-cAMP measured in the native Arabidopsis lysate (FIG. 11B).
TIA1 protein was purchased from Origene (Herford, Germany). Rbp47b was cloned as a C-terminal GFP fusion (to increase protein solubility) into the E. coli expression vector pDEST14 containing His6-tag at the N-terminal of the Gateway (Karlsruhe, Germany) cassette. […]
Next day, cells were disrupted with an Avestin (Mannheim, Germany) EmulsiFlex C3 homogenizer and the protein was purified using imidazole-gradient purification in Ni-NTA agarose (Qiagen 34080, Hilden, Germany). […] Protein purity was assessed by SDS-PAGE and protein identification was done using western blot using anti-His6 antibodies. […]

Rbp47b self-assembly = biological target: T4, Rbp47b self-assembly (Arabidopsis thaliana, UniProt Q0WW84); assay: MST measurement of Rbp47b self-assembly; assay type: binding; settings: 50 μM 2′,3′-cAMP; in its absence Kd=127.87 nM (128 nM); read-out: Kd of Rbp47b self-assembly in the presence of the ligand
T4 construct: GFP (C, cleaved yes); made in house; host or cells: E. coli Rosetta
T4 sequence (Q0WW84 1-435): T3 sequence (Q0WW84 1-435)
Text: In plants 2′,3′-cAMP levels increase rapidly under wounding stress (Van Damme (2014) (loc. cit.)). To test whether 2′,3′-cAMP level changes in other stress conditions we queried metabolomics date from stress time-course of (Caldana et al. (2011) High-density kinetic analysis of the metabolomic and transcriptomic response of Arabidopsis to eight environmental conditions. Plant J 67: 869-884). Shortly, mature Col-0 rosettes (prior bolting) grown in the control environment, were transferred into combinations of light (low light, high light, darkness) and temperature stress conditions (heat and cold) and sampled in multiple time-points until 24 h following stress onset. […] If the interaction takes place in the cytosol, where both, Rbp47b and 2′,3′-cAMP are present, one would expect that 2′,3′-cAMP might influence stress granules formation, meaning oligomerization of Rbp47b. Due to the lack of commercially available membrane permeable derivative of 2′,3′-cAMP molecule, we were unable to follow stress granules formation in vivo. However we tested this hypothesis directly by determining the oligomerization of Rbp47b in the presence and absence of saturating amounts of 2′,3′-cAMP by MST. […] 2′,3′-cAMP, besides being the degradation product of mRNA, could play a regulatory role by influencing the oligomerization of the Rbp47b protein, in turn influencing the formation of SGs. […]

With Nc1ncnc2c1ncn2[C@@H]1O[C@H](CO)[C@H]2OP(=O)(O)O[C@H]21 [2′,3′-cAMP] the Kd (TIA1) was 217 µM, the Kd (TIA1 self-assembly) was 20.6 nM and 20 nM and the Kd (Rbp47b) was 1020 nM and 1000 nM. For the same compound, the Kd (Rbp47b self-assembly) was 8.9 nM and 9 nM.
